The supplement of paper PMC10307832

Compound: Cn1nnc2c(C(N)=O)ncn2c1=O [Temozolomide] + C[C@]1(O)C[C@@H](c2nc(-c3ccc4ccc(-c5ccccc5)nc4c3)c3c(N)nccn32)C1 [Linsitinib] (partner 1 µM)
Test: relative viability (nuclei count vs DMSO), 5 days (fraction); higher = more cells survive
Details: first compound 0.2 µM
In short: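 Lung cancer cell lines, seeded in 1536-well plates, were treated the following day by pin tool with a single drug or with five library-drug doses (not always all listed) in √10 steps on top of a fixed anchor-drug dose. Cells were fixed and nuclei stained in one step after 5 days, and nuclei were counted. Relative viability is the nuclei count for treated wells divided by that for vehicle wells, reported as medians of duplicate plates.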

In order of falling relative viability:
1. NCI-H647  1.27
2. NCI-H2009  1.2
3. NCI-H596  1.16
4. NCI-H1437  1.15
5. NCI-H1915  1.15
6. NCI-H2087  1.09
7. NCI-H650  1.08
8. NCI-H520  1.03
9. NCI-H838  1.03
10. NCI-H1755  1.01
11. NCI-H1651  0.998
12. NCI-H1975  0.961
13. NCI-H2085  0.865
14. NCI-H1734  0.824
15. NCI-H1395  0.821
16. NCI-H1993  0.725
17. NCI-H1355  0.713
18. NCI-H2126  0.691
19. NCI-H1666  0.69
20. NCI-H1944  0.662
21. NCI-H2023  0.567
22. NCI-H1792  0.363
23. NCI-H727  0.287

Same assay, conditions: first compound 0.6325 µM

In order of falling relative viability:
1. NCI-H2009  1.22
2. NCI-H647  1.2
3. NCI-H1944  1.17
4. NCI-H596  1.08
5. NCI-H838  1.05
6. NCI-H1395  1.05
7. NCI-H322M  1.02
8. NCI-H1437  1.02
9. NCI-H1915  1.02
10. NCI-H1975  1.01
11. NCI-H1651  0.99
12. NCI-H1755  0.98
13. LOU-NH91  0.955
14. LXF-289  0.939
15. NCI-H2085  0.919
16. NCI-H520  0.904
17. NCI-H650  0.893
18. NCI-H1793  0.884
19. NCI-H2087  0.862
20. NCI-H1355  0.859
21. NCI-H1734  0.811
22. NCI-H460  0.801
23. NCI-H358  0.728
24. NCI-H1993  0.727
25. NCI-H1666  0.713
26. NCI-H2126  0.712
27. NCI-H2023  0.7
28. NCI-H441  0.601
29. NCI-H1792  0.586
30. NCI-H23  0.541
31. NCI-H661  0.54
32. LU99A  0.514
33. NCI-H727  0.329

Same assay, conditions: first compound 2 µM

In order of falling relative viability:
1. NCI-H1395  1.31
2. NCI-H2009  1.3
3. NCI-H1944  1.26
4. NCI-H647  1.15
5. NCI-H1793  1.15
6. NCI-H1651  1.14
7. NCI-H1437  1.11
8. NCI-H650  1.05
9. NCI-H1755  1.04
10. NCI-H838  1.03
11. NCI-H2087  1.03
12. NCI-H322M  1.02
13. NCI-H596  1.02
14. LOU-NH91  1.01
15. NCI-H1734  0.986
16. NCI-H520  0.98
17. NCI-H1915  0.969
18. LXF-289  0.954
19. NCI-H1975  0.922
20. NCI-H358  0.854
21. NCI-H1355  0.796
22. NCI-H460  0.79
23. NCI-H2085  0.788
24. NCI-H23  0.698
25. NCI-H1993  0.698
26. NCI-H2023  0.665
27. NCI-H2126  0.646
28. NCI-H661  0.641
29. NCI-H1666  0.616
30. LU99A  0.551
31. NCI-H441  0.548
32. NCI-H1792  0.498
33. NCI-H727  0.196

Same assay, conditions: first compound 6.325 µM

In order of rising relative viability:
1. NCI-H727  0.224
2. NCI-H661  0.442
3. NCI-H441  0.451
4. NCI-H1792  0.475
5. LU99A  0.564
6. NCI-H23  0.668
7. NCI-H1666  0.688
8. NCI-H1915  0.711
9. NCI-H2023  0.712
10. NCI-H460  0.727
11. NCI-H650  0.735
12. NCI-H1993  0.744
13. NCI-H2126  0.768
14. NCI-H647  0.776
15. NCI-H358  0.797
16. NCI-H2087  0.826
17. NCI-H1793  0.846
18. NCI-H1734  0.865
19. NCI-H1355  0.883
20. NCI-H1975  0.903
21. LOU-NH91  0.932
22. LXF-289  0.938
23. NCI-H520  0.941
24. NCI-H322M  0.959
25. NCI-H1395  0.978
26. NCI-H2085  0.994
27. NCI-H1755  1
28. NCI-H1437  1.01
29. NCI-H1651  1.04
30. NCI-H838  1.08
31. NCI-H596  1.09
32. NCI-H1944  1.11
33. NCI-H2009  1.2

Same assay, conditions: first compound 20 µM

In order of falling relative viability:
1. NCI-H2009  1.22
2. NCI-H1437  1.14
3. NCI-H838  1.09
4. NCI-H520  1.04
5. NCI-H1395  1.04
6. NCI-H596  1.02
7. NCI-H1944  0.992
8. NCI-H1651  0.969
9. NCI-H2087  0.949
10. NCI-H1975  0.9
11. NCI-H460  0.877
12. LXF-289  0.876
13. NCI-H1734  0.845
14. NCI-H2085  0.84
15. NCI-H1793  0.839
16. NCI-H650  0.83
17. NCI-H1755  0.801
18. NCI-H1355  0.794
19. NCI-H1993  0.708
20. NCI-H2126  0.692
21. NCI-H322M  0.665
22. NCI-H2023  0.662
23. NCI-H358  0.617
24. LU99A  0.572
25. NCI-H441  0.529
26. NCI-H661  0.525
27. LOU-NH91  0.505
28. NCI-H23  0.5
29. NCI-H1666  0.482
30. NCI-H1792  0.481
31. NCI-H1915  0.402
32. NCI-H647  0.295
33. NCI-H727  0.233
